In the supplement of paper PMC10307832:

Legend:
Experiment in all cases: relative viability (nuclei count vs DMSO), 5 days (fraction); higher = more cells survive
[1] = compound: CC1(COc2ccc3c(c2)ncn3-c2ccc3cccc(N4CCC(N)CC4)c3n2)COC1 [Crenolanib] + Nc1nc2[nH]cc(CCc3ccc(C(=O)N[C@@H](CCC(=O)O)C(=O)O)cc3)c2c(=O)[nH]1 [Pemetrexed] (partner 0.2 µM)
Method in brief: (§1)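 Relative viability equals treated-well nuclei counts divided by vehicle-well nuclei counts. Counts came from 4× images of lung cancer cell lines grown in 1536-well plates for 5 days after pin-tool dosing on the day after seeding. Dosing used one drug alone or a fixed anchor-drug dose plus five library-drug doses (not always all listed) in √10 steps, and values are medians of duplicate plates.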

[2] = compound: O=C1NC(=O)[C@@H](c2cn3c4c(cccc24)CCC3)[C@@H]1c1c[nH]c2ccccc12 [Tivantinib] + C[C@]1(O)C[C@@H](c2nc(-c3ccc4ccc(-c5ccccc5)nc4c3)c3c(N)nccn32)C1 [Linsitinib] (partner 1 µM)
Method in brief: as §1

[3] = compound: CC1(COc2ccc3c(c2)ncn3-c2ccc3cccc(N4CCC(N)CC4)c3n2)COC1 [Crenolanib] + Nc1ncn([C@H]2C[C@H](O)[C@@H](CO)O2)c(=O)n1 [Decitabine] (partner 2 µM)
Method in brief: as §1

[4] = compound: CC1(COc2ccc3c(c2)ncn3-c2ccc3cccc(N4CCC(N)CC4)c3n2)COC1 [Crenolanib] + N=C(N)NC(=N)NCCc1ccccc1 [Phenformin] (partner 250 µM)
Method in brief: as §1

Cell Line: UMC-11
- relative viability ([1]; first compound 0.01 µM): 0.791
- relative viability ([1]; first compound 0.03162 µM): 0.755
- relative viability ([1]; first compound 0.1 µM): 0.738
- relative viability ([1]; first compound 0.3162 µM): 0.832
- relative viability ([1]; first compound 1 µM): 0.741
- relative viability ([2]; first compound 0.01 µM): 0.974
- relative viability ([2]; first compound 0.03162 µM): 0.979
- relative viability ([2]; first compound 0.1 µM): 0.943
- relative viability ([2]; first compound 0.3162 µM): 1
- relative viability ([3]; first compound 0.01 µM): 0.669
- relative viability ([3]; first compound 0.03162 µM): 0.578
- relative viability ([3]; first compound 0.1 µM): 0.627
- relative viability ([3]; first compound 0.3162 µM): 0.588
- relative viability ([3]; first compound 1 µM): 0.557
- relative viability ([4]; first compound 0.01 µM): 0.346
- relative viability ([4]; first compound 0.03162 µM): 0.323
- relative viability ([4]; first compound 0.1 µM): 0.325
- relative viability ([4]; first compound 0.3162 µM): 0.329
- relative viability ([4]; first compound 1 µM): 0.269
